Drawing on ChEMBL document CHEMBL1157597, “Exploring a synthetic organoselenium compound for antioxidant pharmacotherapy--toxicity and effects on ROS-production” (Bioorg Med Chem, 2010), this text covers Activity and IC50 for 4 compounds.

Calls of active or inactive are those of the source. The rule behind the calls is not given here.

Series [1] is described as follows: Antioxidant activity against ABTS radicals assessed as trolox equivalents in phosphate buffer of pH 7.4 at 6.08 uM by ABTS assay. Type of series: functional.
Series [2] has as its system HEK293. The series can be described thus: Cytotoxicity against HEK293 cells assessed as decrease in proliferation up to 200 uM after 7 days by alamar blue assay. It counts as cell-based. The note with it: human, hek293, 168 h. A general note: Alamar Blue is a resazurin reagent that responds to reducing activity.
The test system of series [3] is Caco-2. The series can be described thus: Cytotoxicity against human Caco-2 cells assessed as cell death at 60 uM after 7 days by LDH assay. Particulars: caco-2, 168 h. It counts as cell-based.
Series [4] deals with SH-SY5Y. Briefly: Cytotoxicity against human SH-SY5Y cells assessed as decrease in proliferation up to 200 uM after 7 days by alamar blue assay. Type of series: cell-based. Particulars: 168 h.
Series [5] relates to Caco-2. Briefly: Cytotoxicity against human Caco-2 cells assessed as plasma membrane damage at 60 uM after 7 days by LDH assay. Type of series: cell-based. Particulars: caco-2, 168 h.
Series [6] has as its system HEK293. Briefly: Cytotoxicity against HEK293 cells assessed as cell death at 60 uM after 7 days by LDH assay. Type of series: cell-based. The note with it: human, hek293, 168 h.
Series [7] has as its system Caco-2. The series can be described thus: Cytotoxicity against human Caco-2 cells assessed as decrease in proliferation up to 200 uM after 7 days by alamar blue assay. Type of series: cell-based. Particulars: caco-2, 168 h.
Series [8] has as its system MRC5. The series can be described thus: Cytotoxicity against human MRC5 cells assessed as decrease in proliferation up to 200 uM after 7 days by alamar blue assay. Particulars: mrc5, 168 h. Type of series: cell-based.
In series [9] the test system is MRC5. Briefly: Cytotoxicity against human MRC5 cells assessed as plasma membrane damage at 60 uM after 7 days by LDH assay. It counts as cell-based. The note with it: mrc5, 168 h.
The subject of series [10] is SH-SY5Y. Briefly: Cytotoxicity against human SH-SY5Y cells assessed as plasma membrane damage at 60 uM after 7 days by LDH assay. It counts as cell-based. The note with it: 168 h.
The nature of series [11]: Cytotoxicity against human MG63 cells assessed as cell death at 60 uM after 7 days by LDH assay. Type of series: cell-based. The note with it: mg-63, 168 h.
Series [12] relates to MRC5. Briefly: Cytotoxicity against human MRC5 cells assessed as cell death at 60 uM after 7 days by LDH assay. Type of series: cell-based. Particulars: mrc5, 168 h.
Series [13] concerns THP-1. The series can be described thus: Antioxidant activity against ROS-production in PMA-stimulated human THP1 cells by chemiluminescence. Type of series: cell-based.
Series [14] in a line: Cytotoxicity against human MG63 cells assessed as plasma membrane damage at 60 uM after 7 days by LDH assay. It counts as cell-based. The note with it: mg-63, 168 h.
In series [15] the test system is Neutrophil. The series can be described thus: (§1) Antioxidant activity against ROS-production in human neutrophils by chemiluminescence. It counts as functional, cell-based.
A short description of series [16]: as §1. Type of series: functional, cell-based. Particulars: Neutrophil.
The nature of series [17]: Cytotoxicity against human MG63 cells assessed as decrease in proliferation up to 200 uM after 7 days by alamar blue assay. Type of series: cell-based. The note with it: mg-63, 168 h.
The test system of series [18] is HEK293. The series can be described thus: Cytotoxicity against HEK293 cells assessed as plasma membrane damage at 60 uM after 7 days by LDH assay. Particulars: human, hek293, 168 h. It counts as cell-based.
The subject of series [19] is SH-SY5Y. Briefly: Cytotoxicity against human SH-SY5Y cells assessed as cell death at 60 uM after 7 days by LDH assay. Particulars: 168 h. Type of series: cell-based.

With `CC(=O)N[C@@H](CS)C(=O)O`, the Activity in series [1] was 2.4.
On the same count and under the same terms, next, `O=C1O[C@H]([C@@H](O)CO)C([O-])=C1O.[Na+]`: “Active”.
For orientation: IC50 means the concentration that inhibits the measured activity by half. Low values mean inhibition by little substance, high ones a need for much substance. Take `CC1Cc2cc(O)ccc2[Se]1` (stereo unspecified): the Activity result in series [2], in series [3], in series [4], in series [5], in [6] and in [7] was “Non-toxic” each time. For the same compound, the Activity result in series [8] was “Non-toxic”; in series [9] it was “Non-toxic”; in [10], “Non-toxic”; in [11], “Non-toxic”; in series [12], “Non-toxic”; in series [13], “Dose-dependent effect”. Also, the Activity entry in [14] is “Non-toxic”; in series [15] it was “Dose-dependent effect”; in series [17], “Non-toxic”; in series [18], “Non-toxic”; in [19], “Non-toxic”. For the same compound, in [1], the result was Active. The compound further had a half-inhibitory concentration (IC50) in [16] of 1000 nM.
`Cc1c(C)c2c(c(C)c1O)CCC(C)(C(=O)O)O2` (stereo unspecified) [TROLOX]: the Activity result in [3], in series [5], in [6], in series [9], in [10] and in [11] was “Non-toxic” in each case. The Activity entry in [12], in series [14], in series [18] and in series [19] was “Non-toxic” in each case.
